Drawing on ChEMBL document CHEMBL5726007, “Therapeutic compounds and uses thereof” (2018), this text covers IC50 for one compound.

The experiment addresses T1, Bromodomain-containing protein 9 (Homo sapiens, UniProt Q9H8M2).
T1 sequence (Q9H8M2 whole entry): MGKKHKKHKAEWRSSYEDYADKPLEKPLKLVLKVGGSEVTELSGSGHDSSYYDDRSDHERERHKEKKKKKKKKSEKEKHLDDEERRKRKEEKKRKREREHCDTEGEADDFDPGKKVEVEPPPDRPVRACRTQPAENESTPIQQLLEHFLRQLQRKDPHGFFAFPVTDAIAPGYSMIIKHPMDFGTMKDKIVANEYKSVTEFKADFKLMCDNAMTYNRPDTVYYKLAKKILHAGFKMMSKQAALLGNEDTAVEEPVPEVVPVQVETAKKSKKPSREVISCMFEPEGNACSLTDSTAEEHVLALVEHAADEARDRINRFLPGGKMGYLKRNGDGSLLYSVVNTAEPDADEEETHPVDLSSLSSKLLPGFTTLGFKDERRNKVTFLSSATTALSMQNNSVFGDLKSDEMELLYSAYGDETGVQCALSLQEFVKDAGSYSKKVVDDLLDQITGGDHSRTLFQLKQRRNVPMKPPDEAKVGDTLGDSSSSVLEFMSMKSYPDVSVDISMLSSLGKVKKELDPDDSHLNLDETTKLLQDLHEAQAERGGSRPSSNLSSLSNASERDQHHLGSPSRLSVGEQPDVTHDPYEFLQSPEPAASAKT
The experiment can be described thus: After 20 minutes incubation at room temperature AlphaLisa Streptavidin Acceptor Beads (Perkin-AL125C) and AlphaLisa Nickel donor beads (Perkin AS 10 ID) were added to a final concentration of 15 ug/mL each. Background: Bead proximity is the source of the signal in Alpha formats.

As a reminder, the IC50 is the point on the concentration scale where inhibition reaches its midpoint. In turn, `CC(C)n1cc(-c2ccc(C(C)(C)O)cc2)c2cc[nH]c2c1=O` registered an IC50 of 4.1 µM.
